According to US20250367157A1, “COMPOSITION FOR USE IN THE TREATMENT OF DISEASES ASSOCIATED WITH DYSFUNCTION OF MITOCHONDRIAE” (IUF LEIBNIZ-INSTITUT FÜR UMWELTMEDIZINISCHE FORSCHUNG GMBH, priority 2022, published 2025):

Assays:
[1] = test system: primary CSB-deficient human fibroblasts; experiment: RNA isolation and real-time PCR, CSB fibroblasts; format: cell-based; conditions: Choline 100 mM, alone or combined
Protocol: (§1) 200 ng of purified RNA were used for cDNA synthesis using SuperScript reverse transcriptase (Thermo Fisher). Expression levels of the genes PKM1, PKM2, MT-ATP6, MT-ATP8, MT-ND1, MT-ND3, TFAM, SOD2, AKR1B1, HSPA2 and TFPI2 were analyzed using a CFX Connect Real-Time PCR detection system and SYBR Green Supermix (both from Bio-Rad). Expression levels of the genes mentioned above were normalized in comparison to the housekeeper genes 18S (for experiments with XPA-deficient fibroblasts) or β2-microglobulin (for experiments with CSB-deficient fibroblasts).
200 ng of purified RNA were used for cDNA synthesis using SuperScript reverse transcriptase (Thermo Fisher). Expression levels of selected genes were analyzed using a CFX Connect Real-Time PCR detection system and SYBR Green Supermix (both from Bio-Rad).

[2] = test system: primary XPA-deficient human fibroblasts; conditions: Choline 100 mM, Acetate 10 mM, alone or combined; FIG. 2 B, FIG. 7 B
Protocol: Medium was removed and cells received growth medium (1% FCS) containing either Choline (100 mM), Acetate (10 mM), or a combination of Choline (100 mM) and Acetate (10 mM) (Chol/Ac). Control cells received normal growth medium supplied with 1% FCS. 24 hours later, cells received fresh medium containing the respective compounds and were incubated for another 24 hours. The cells were washed with PBS and fixed with 2% paraformaldehyde. For immunofluorescence staining of ATP and the ATP5A subunit of the mitochondrial ATP synthase, cells were permeabilized with PBS containing 0.1% Triton X-100 and incubated with an anti-ATP antibody raised in rabbit (MyBioSource) and an anti-ATP5A antibody raised in mouse (Abcam) overnight at 4° C. Next day, antibodies were removed, and cells were washed three times with PBS containing 0.1% Triton X-100. Cells were incubated with anti-mouse and anti-rabbit secondary antibodies either labeled with a green (Alexa Fluor 488, Thermo Fisher) or with a red fluorescence dye (Alexa Fluor 594, Thermo Fisher) for 2 hours at room temperature. Antibodies were removed and cells were washed three times with PBS containing 0.1% Triton X-100. Slides were mounted using an anti-fade mounting medium (Southern Biotech) and analyzed with a fluorescence microscope (Zeiss).

[3] = test system: primary XPA-deficient human fibroblasts; experiment: RNA isolation and real-time PCR, XPA fibroblasts; format: cell-based; conditions: 24 hours after UVB, Choline 100 mM, alone or combined; for RNA levels of PKM1, PKM2, MT-ATP6, MT-ATP8, SOD2, AKR1B1, HSPA2, TFPI2: Acetate 10 mM, FIG. 3; for RNA levels of CRYAB, HSPA2, ISYNA1: DMKG 10 mM, FIG. 9
Protocol: as §1
200 ng of purified RNA were used for cDNA synthesis using SuperScript reverse transcriptase (Thermo Fisher). Expression levels of selected genes were analyzed using a CFX Connect Real-Time PCR detection system and SYBR Green Supermix (both from Bio-Rad). Expression levels of the selected genes were normalized in comparison to the housekeeper gene 18S.

[4] = test system: primary normal human dermal fibroblasts (NHF); experiment: ATP immunofluorescence microscopy, NHF; format: cell-based; conditions: Choline 100 mM, Acetate 10 mM, alone or combined
Protocol: Primary NHF and XPA-deficient fibroblasts were grown on chamber glass slides (Sarstedt) in growth medium containing 15% FCS. 48 hours before UVB irradiation, medium was removed, cells were washed with PBS and received growth medium containing 1% FCS. 24 hours later, medium was removed, and cells received growth medium (1% FCS) containing Choline (100 mM) and Acetate (10 mM). Control cells received normal growth medium supplied with 1% FCS. 24 hours later, medium was removed, cells were washed with PBS and were irradiated with UVB in fresh PBS. Unirradiated control (Sham) cells grown in a second chamber were treated essentially equal but were not exposed to UVB. After irradiation, PBS was removed, and cells were treated with Choline/Acetate or control growth medium. 24 hours later, medium was removed, cells were washed with PBS and fixed with 2% paraformaldehyde. For immunofluorescence staining of ATP and the ATP5A subunit of the mitochondrial ATP synthase, cells were permeabilized with PBS containing 0.1% Triton X-100 and incubated with an anti-ATP antibody raised in rabbit (MyBioSource) and an anti-ATP5A antibody raised in mouse (Abcam) overnight at 4° C. […] Cells were incubated with anti-mouse and anti-rabbit secondary antibodies either labeled with a green (Alexa Fluor 488, Thermo Fisher) or with a red fluorescence dye (Alexa Fluor 594, Thermo Fisher) for 2 hours at room temperature. […] Slides were mounted using an anti-fade mounting medium (Southern Biotech) and analyzed with a fluorescence microscope (Zeiss).
As described herein above for FIG. 2 B, further primary normal human dermal fibroblasts (NHF) and XPA-deficient fibroblasts were grown on chamber glass slides (Sarstedt) in growth medium containing 15% FCS. […] Cells were incubated with anti-mouse and anti-rabbit secondary antibodies either labeled with a green (Alexa Fluor 488, Thermo Fisher) or with a red fluorescence dye (Alexa Fluor 594, Thermo Fisher) for 2 hours at room temperature. […] Slides were mounted using an anti-fade mounting medium (Southern Biotech) and analyzed with a fluorescence microscope (Zeiss). […]

[5] = test system: primary XPA-deficient human fibroblasts; experiment: Protein extraction and Western blot, XPA fibroblasts; format: cell-based; conditions: Choline 100 mM alone or with Acetate 10 mM; FIG. 4 A
Protocol: Histone samples were stored at −80° C.

[6] = test system: primary CSB-deficient human fibroblasts; conditions: Example 2.1; Sham and UVB; Choline 100 mM, Acetate 10 mM, alone or combined; FIG. 11
Protocol: As described herein above for FIG. 2 B, primary NHF and CSB-deficient fibroblasts were grown on chamber glass slides (Sarstedt) in growth medium containing 15% FCS. 48 hours before UVB irradiation, medium was removed, cells were washed with PBS and received growth medium containing 1% FCS. 24 hours later, medium was removed, and cells received growth medium (1% FCS) containing either Choline (100 mM), Acetate (10 mM), or a combination of Choline (100 mM) and Acetate (10 mM) (Chol/Ac). Control cells received normal growth medium supplied with 1% FCS. 24 hours later, medium was removed, cells were washed with PBS and were irradiated with UVB (FIG. 11 B) in fresh PBS. Unirradiated control (Sham) cells (FIG. 11 A) grown in a second chamber were treated essentially equal but were not exposed to UVB. After irradiation, PBS was removed and cells were treated again with the respective compounds or control growth medium. 24 hours later, medium was removed, cells were washed with PBS and fixed with 2% paraformaldehyde. […] Cells were incubated with anti-mouse and anti-rabbit secondary antibodies either labeled with a green (Alexa Fluor 488, Thermo Fisher) or with a red fluorescence dye (Alexa Fluor 594, Thermo Fisher) for 2 hours at room temperature. […] Slides were mounted using an anti-fade mounting medium (Southern Biotech) and analyzed with a fluorescence microscope (Zeiss).

[7] = test system: primary XPA-deficient human fibroblasts; experiment: Apoptosis measurement (annexin V/propidium iodide flow cytometry); format: cell-based; conditions: Cisplatin 50 μM, 24 hours, XPA Control vs XPA Cisplatin; FIG. 1 B
Protocol: Primary human fibroblasts obtained from Xeroderma pigmentosum group A (XPA) patients and Cockayne Syndrome group B (CSB) patients were purchased from Coriell Institute (USA). Normal human fibroblasts (NHF) were isolated from skin samples obtained from healthy age-matched donors undergoing skin surgery. Cells were grown in Dulbecco's Modified Eagle Medium (DMEM) supplemented with 1% glutamine, antibiotics/antimycotics (growth medium) and 15% fetal calf serum (FCS) at 37° C. in a humidified atmosphere containing 5% CO2. For experiments, cells were detached from culture flasks by treatment with 0.05% trypsin solution (5 min/37° C.). After blocking trypsin activity by adding growth medium with 10% FCS, cells were spun down, resuspended in growth medium (15% FCS) and plated in appropriate culture dishes. Cells were allowed to grow until they reached around 80% confluency. […] Next day, cells were treated with the compounds Choline Chloride (here called Choline), or Sodium Acetate (here called Acetate), or both of them (both compounds were purchased from Sigma-Aldrich). […] Cells were analyzed by using a FACSCanto flow cytometry system. The percentage of early apoptotic cells defined as annexin V (+) and propidium iodide (-) was determined.

SMILES	cellular ATP levels (anti-ATP antibody staining) [2]	RNA levels of PKM1, PKM2, MT-ATP6, MT-ATP8, SOD2, AKR1B1, HSPA2, TFPI2 [3]	cellular ATP levels (anti-ATP antibody staining) ([4]; Example 2, FIG. 2 B, FIG. 7 A)	RNA levels of CRYAB, HSPA2, ISYNA1 [3]	also measured
CC(=O)[O-].[Na+] [Acetate, Sodium Acetate]	no effect on cellular ATP abundance when given alone	does not increase RNA levels after UVB	no effect on cellular ATP abundance when given alone		RNA levels of SOD2, HSPA2 ([1]; 48 hours after UVB, Acetate 10 mM, FIG. 12): only little or even no effect on the RNA levels of the depicted genes
C[N+](C)(C)CCO.[Cl-] [Choline, Choline Chloride]	accumulation of ATP in the cellular nuclei	induced gene expression	accumulation of ATP in the cellular nuclei	induced gene expression of CRYAB, HSPA2 and ISYNA1	GLUT1 protein level [5]: equally increased; cellular ATP levels (anti-ATP antibody staining) [6]: accumulation of ATP in the cellular nuclei; cellular ATP levels (anti-ATP antibody staining) ([4]; Example 2.1, Sham and UVB, FIG. 11): accumulation of ATP in the cellular nuclei
N.N.[Cl][Pt][Cl] [Cisplatin]					apoptosis induction by the DNA-damaging agent alone [7]: increased apoptosis (cell death) induction
COC(=O)CCC(=O)C(=O)OC [DMKG, Dimethyl-α-Ketoglutarate]				only little (or even no) effect on most RNA levels	
CCCCCCC(=O)OCC(COC(=O)CCCCCC)OC(=O)CCCCCC [Triheptanoin]					RNA levels of AKR1B1, SOD2 ([1]; 24 hours after UVB, Triheptanoin 100 μM, FIG. 13): only little or even no positive effect on the RNA level of AKR1B1, and SOD2
